Tests used:
5-HT2B = target: T1, 5-HT2B (Homo sapiens, UniProt P41595); assay: Gq activation via Gq/γ1 dissociation BRET, 5-HT2B; format: cell-based; conditions: HEK293T cells, AT* = data suggests antagonistic effect at 5-HT2B (footnote); for Emax: HEK-293T, Gq dissociation BRET2, normalized to % 5-HT stimulation
T1 construct: expressed in transfected cells; host or cells: HEK293T
Text: (§1) To measure 5-HT2 receptor-mediated Gq activation via Gq/y1 dissociation as measured by Bioluminescence Resonance Energy Transfer (BRET) (McCorvy JD, Wacker D, Wang S, Agegnehu B, Liu J, Lansu K, Tribo A R, Olsen R HJ, Che T, Jin J, Roth B L. Structural determinants of 5-HT2B receptor activation and biased agonism. Nat Struct Mo/ Biol. 2018; 25(9): 787-96), HEK293T cells were sub-cultured in Dulbecco's Modified Eagle Medium (DMEM) supplemented with 10% dialyzed fetal bovine serum (FBS) and were co-transfected in a 1:1:1:1 ratio with Rluc8-fused human Gaq (Gaq-Rluc8), a GFP2-fused to the C-terminus of human Gy1(Gy1-GFP2), human G131, and 5-HT2 receptor using TransiT-2020. After at least 18-24 hours, transfected cells were plated in poly-lysine coated 96-well white clear bottom cell culture plates in DMEM containing 1% dialyzed FBS at a density of 25,000-40,000 cells in 200 μL per well and incubated overnight. The following day, medium was decanted, and cells were washed with 60 μL of drug buffer (1×HBSS, 20 mM HEPES, pH 7.4), then 60 μL of drug buffer was added per well. Cells were pre-incubated at in a humidified atmosphere at 37° C. before receiving drug stimulation. Drug stimulation utilized 30 μL addition of drug (3×) diluted in McCorvy buffer (1×HBSS, 20 mM HEPES, pH 7.4, supplemented with 0.3% BSA fatty acid free, 0.03% ascorbic acid) and plates were incubated at for 1 hour at 37° C. Substrate addition occurred 15 minutes before reading and utilized 10 μL of the Rluc substrate coelenterazine 400a for Gq dissociation BRET^2 (Prolume/Nanolight, 5 μM final concentration). Plates were read for luminescence at 400 nm and fluorescent GFP2 emission at 510 nm at 1 second per well using a Mithras LB940 multimode microplate reader (e.g. one provided by Berthold). The BRET ratios of fluorescence/luminescence were calculated per well and were plotted as a function of drug concentration using Graphpad Prism 8 (Graphpad Software Inc., San Diego, CA). Data were normalized to % 5-HT stimulation and analyzed using nonlinear regression “log(agonist) vs. response” to yield Emax and EC50 parameter estimates. Results are shown in Table 8, where A=<10; B=10 to <100; C=100 to 1000 and D=>1000; +++=>70%; ++=50 to 70%; and +=<50%; NC=not calculated. […] Hallucinogenic (“Hall”) or non-hallucinogenic (“N-Hall”) plastogenic effect is predicted for compounds based on the level 5-HT2A agonist efficacy.

5-HT2C [1] = target: T2, 5-HT2C (Homo sapiens, UniProt P28335); assay: Gq signaling bias for 5-HT2C (Gq-coupled versus B-arrestin signaling); format: cell-based; conditions: primary signaling for 5-HT2C via Gq-coupled mechanism compared to B-arrestin
T2 sequence (P28335 33-458): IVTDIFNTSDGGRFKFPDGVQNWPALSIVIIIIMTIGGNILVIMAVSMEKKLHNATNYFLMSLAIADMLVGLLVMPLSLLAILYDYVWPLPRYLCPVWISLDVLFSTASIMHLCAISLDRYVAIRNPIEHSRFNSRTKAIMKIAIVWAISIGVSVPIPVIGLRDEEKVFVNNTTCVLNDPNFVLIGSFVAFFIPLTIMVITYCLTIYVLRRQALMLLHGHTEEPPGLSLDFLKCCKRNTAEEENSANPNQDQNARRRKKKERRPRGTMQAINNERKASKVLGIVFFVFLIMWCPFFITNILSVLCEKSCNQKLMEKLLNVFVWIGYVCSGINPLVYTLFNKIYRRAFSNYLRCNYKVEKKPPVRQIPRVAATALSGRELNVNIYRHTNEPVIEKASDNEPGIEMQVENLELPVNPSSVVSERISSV
Text: as §1

5-HT2A [2] = target: T3, 5-HT2A (Homo sapiens, UniProt P28223); assay: Gq activation via Gq/γ1 dissociation BRET, 5-HT2A; format: cell-based; conditions: HEK293T cells; for EC50: Gq dissociation BRET2, 1 hour at 37° C.; for Emax: HEK-293T, Gq dissociation BRET2, normalized to % 5-HT stimulation
T3 construct: expressed in transfected cells; host or cells: HEK293T
Text: as §1

5-HT2C [3] = target: T2, 5-HT2C; assay: Gq activation via Gq/γ1 dissociation BRET, 5-HT2C; format: cell-based; set-up: expressed in transfected cells; host or cells: HEK293T; conditions: for Emax: HEK-293T, read-out: 5-HT2C Emax (%)
Text: as §1

5-HT2A [4] = target: T3, 5-HT2A; assay: Predicted hallucinogenic or non-hallucinogenic plastogenic effect based on 5-HT2A agonist efficacy; conditions: hallucinogenic (Hall) or non-hallucinogenic (N-Hall) plastogenic effect predicted from level of 5-HT2A agonist efficacy
Text: as §1

[5] = Gq dissociation BRET2, 1 hour at 37° C.

T3 sequence (P28223 whole entry): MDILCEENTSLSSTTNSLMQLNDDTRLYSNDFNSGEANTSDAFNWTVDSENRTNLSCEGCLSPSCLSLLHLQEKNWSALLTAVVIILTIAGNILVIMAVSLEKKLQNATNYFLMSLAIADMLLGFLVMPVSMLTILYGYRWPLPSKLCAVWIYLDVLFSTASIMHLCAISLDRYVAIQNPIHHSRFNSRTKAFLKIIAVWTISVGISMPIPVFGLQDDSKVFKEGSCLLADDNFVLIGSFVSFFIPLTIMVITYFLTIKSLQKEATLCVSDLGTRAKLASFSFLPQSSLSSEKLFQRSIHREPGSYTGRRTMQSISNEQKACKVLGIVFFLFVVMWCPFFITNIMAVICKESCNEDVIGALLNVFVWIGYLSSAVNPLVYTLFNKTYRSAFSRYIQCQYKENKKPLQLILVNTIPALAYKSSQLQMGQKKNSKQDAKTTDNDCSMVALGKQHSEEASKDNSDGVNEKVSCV
T1 sequence (P41595 whole entry): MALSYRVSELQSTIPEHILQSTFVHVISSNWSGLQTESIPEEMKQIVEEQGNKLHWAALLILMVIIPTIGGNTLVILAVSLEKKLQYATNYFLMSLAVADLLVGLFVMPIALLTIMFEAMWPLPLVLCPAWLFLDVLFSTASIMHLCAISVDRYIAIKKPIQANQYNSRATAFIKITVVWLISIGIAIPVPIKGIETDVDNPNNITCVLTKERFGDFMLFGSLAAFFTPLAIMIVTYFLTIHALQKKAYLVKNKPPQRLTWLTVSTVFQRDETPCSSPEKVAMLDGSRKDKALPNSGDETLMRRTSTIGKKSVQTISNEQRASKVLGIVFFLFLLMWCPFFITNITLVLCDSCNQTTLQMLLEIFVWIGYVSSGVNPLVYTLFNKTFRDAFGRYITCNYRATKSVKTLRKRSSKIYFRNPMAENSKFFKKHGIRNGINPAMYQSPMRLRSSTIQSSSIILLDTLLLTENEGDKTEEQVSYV

## C1=C(c2csc3ccccc23)CNC1
5-HT2B
  Emax: < 50%
5-HT2C [1]
  Gq signaling bias?: Yes
5-HT2A [2]
  EC50: 10 to 100 nM
  Emax: > 70%
5-HT2C [3]
  EC50: < 10 nM
  Emax: > 70%
5-HT2A [4]
  Hall or N-Hall?: Hall

## Cl.c1ccc2c(C3CCNC3)csc2c1 (stereo not shown)
5-HT2B
  Emax: < 50%
5-HT2C [1]
  Gq signaling bias?: Yes
5-HT2A [2]
  EC50: 100 to 1000 nM
  Emax: 50 to 70%
5-HT2C [3]
  EC50: 10 to 100 nM
  Emax: > 70%
5-HT2A [4]
  Hall or N-Hall?: N-Hall

## Fc1cnc2[nH]cc(C3=CCNC3)c2c1
5-HT2B; [5]
  EC50: 100 to 1000 nM
5-HT2B
  Emax: > 70%
5-HT2C [1]
  Gq signaling bias?: No
5-HT2A [2]
  EC50: 100 to 1000 nM
  Emax: > 70%
5-HT2C [3]
  EC50: 10 to 100 nM
  Emax: > 70%
5-HT2A [4]
  Hall or N-Hall?: Hall

## C1=C(c2c[nH]c3ncccc23)CNC1
5-HT2B
  Emax: < 50%
5-HT2C [1]
  Gq signaling bias?: No
5-HT2A [2]
  Emax: < 50%
5-HT2C [3]
  Emax: < 50%
5-HT2A [4]
  Hall or N-Hall?: N-Hall

## CN1CC=C(c2csc3ccccc23)C1
5-HT2B; [5]
  EC50: > 1000 nM
5-HT2B
  Emax: < 50%
5-HT2A [2]
  EC50: 10 to 100 nM
  Emax: 50 to 70%
5-HT2C [3]
  EC50: < 10 nM
  Emax: > 70%

## CN1CC=C(c2csc3cc(F)ccc23)C1
5-HT2B; [5]
  5-HT2B EC50 (nM): AT*
5-HT2A [2]
  EC50: 100 to 1000 nM
  Emax: < 50%
5-HT2C [3]
  EC50: 10 to 100 nM
  Emax: 50 to 70%

## CN1CC(c2csc3ccccc23)C1.Cl
5-HT2B; [5]
  EC50: 100 to 1000 nM
5-HT2B
  Emax: < 50%
5-HT2C [1]
  Gq signaling bias?: Yes
5-HT2A [2]
  EC50: > 1000 nM
  Emax: < 50%
5-HT2C [3]
  EC50: 10 to 100 nM
  Emax: > 70%
5-HT2A [4]
  Hall or N-Hall?: N-Hall
